Data reported in patent publication US11214536B2, “Polymorphs and uses thereof” (Inspirna, Inc., priority 2017, dated 2022).

Assay: Dynamic Vapor Sorption (DVS), hygroscopicity, with XRPD of the post-DVS solid
Assay type: physicochemical
Conditions: for mass uptake at 90% RH by DVS analysis: 25° C., DVS sorption/desorption cycles; for hygroscopic nature by DVS analysis: assessed from mass uptake at 90% RH; for solid form of the post-DVS sample (XRPD): XRPD analysis on solid retained after DVS
Protocol: Approximately, 10-20 mg of sample was placed into a mesh vapor sorption balance pan and loaded into a DVS Advantage dynamic vapor sorption balance by Surface Measurement Systems. The sample was subjected to a ramping profile from 40-90% relative humidity (RH) at 10% increments, maintaining the sample at each step until a stable weight had been achieved (dm/dt 0.004%, minimum step length 30 minutes, maximum step length 500 minutes) at 25° C. After completion of the sorption cycle, the sample was dried using the same procedure to 0% RH and then a second sorption cycle back to 40% RH. Two cycles were performed. The weight change during the sorption/desorption cycles were plotted, allowing for the hygroscopic nature of the sample to be determined. XRPD analysis was then carried out on any solid retained.

mass uptake at 90% RH by DVS analysis | hygroscopic nature by DVS analysis | solid form of the post-DVS sample (XRPD) | mass uptake at 90% RH by DVS analysis (listed as amorphous compound) | Structure (SMILES)
about 2.7% | slightly hygroscopic | partially amorphous Form 5 material |  | CC(CCOc1cccc(CC(=O)O)c1)N(Cc1cccc(C(F)(F)F)c1Cl)CC(c1ccccc1)c1ccccc1 (stereo not shown) [Form 5]
about 1.16% | slightly hygroscopic | no change in the solid form |  | CC(CCOc1cccc(CC(=O)O)c1)N(Cc1cccc(C(F)(F)F)c1Cl)CC(c1ccccc1)c1ccccc1 (stereo not shown) [Form 4]
about 6.17% | highly hygroscopic | remained amorphous | about 6.17% | CC(CCOc1cccc(CC(=O)O)c1)N(Cc1cccc(C(F)(F)F)c1Cl)CC(c1ccccc1)c1ccccc1 (stereo not shown) [amorphous material]
about 2.3% | slightly hygroscopic | no significant change in the solid form |  | CC(CCOc1cccc(CC(=O)O)c1)N(Cc1cccc(C(F)(F)F)c1Cl)CC(c1ccccc1)c1ccccc1 (stereo not shown) [Form 6]
